Molecules are shown by their SMILES.

The data set relates to Huh-7 cells. In words: alamarBlue cell viability (metabolic activity) assay. As to conditions: analogous experiments, FIG. 10. Type of data set: cell-based. Here is the method:
The Huh-7 human liver cell line was used.
After 24 h exposure with compounds 7 or 17, the conditioned medium was removed from the cells and used for the LDH leakage assay (see below). Freshly prepared alamarBlue cell viability reagent (Invitrogen, diluted 1:10 in CCM) was added, followed by incubation for 3 h at 37° C. and 5% CO2. The resulting resorufin fluorescence was read using an Optima Fluostar plate reader (BMG Labtech) Ex: 544 nm/Em: 590 nm. Dimethyl sulfoxide 5% and CCM alone (i.e. compounds 7 and 17 0 μM) were used as positive and negative controls for cell death, respectively.

`N#Cc1ccc2c(c1)Nc1ncnc3c1c-2cn3[C@@H]1O[C@H](COP(=O)(O)O)[C@@H](O)[C@H]1O` [7a, ((2R,3S,4R,5R)-5-(8-cyano-2,3,5,6-tetraazaaceanthrylen-2(6H)-yl)-3,4-dihydroxytetrahydrofuran-2-yl)methyl dihydrogen phosphate]: the “toxicity (cytotoxicity assessment, monophosphate)” value is “non-toxic”.

The values are drawn from patent US20240209016A1, “FLUORESCENT NUCLEOSIDE PHOSPHATES” (STEALTH LABELS BIOTECH AB, priority 2021, published 2024).
